# Assay results reported in patent US10710978B2, “STK4 inhibitors for treatment of hematologic malignancies” (Dana-Farber Cancer Institute, Inc., priority 2015, dated 2020).
# Where two headings read alike, the source gives them in different places.
# How the values were obtained:
# [1] = biological target: STK24 (MST3) (Homo sapiens (Human), UniProt Q9Y6E0); assay: Z-lyte biochemical IC50 assay (Invitrogen); details: ATP concentration matched the Km
# How it was run: (§1)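 FRET-based Z-lyte kinase assays run at Invitrogen, ATP at each kinase's Km; for STK4, 6.25-160 ng enzyme with 2 μM Ser/Thr 07 peptide in HEPES pH 7.5, MgCl2, EGTA, Brij-35, 1 h reaction then development reagent. 10-point 3-fold titration from 10 μM.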
# [2] = biological target: STK4 (MST1) (Homo sapiens (Human), UniProt Q13043); assay: Z-lyte biochemical IC50 assay (Invitrogen); details: ATP concentration matched the Km
# How it was run: as §1
# [3] = tested on: p38d, p38g; assay: KiNativ assay; assay type: binding; details: H929 live cell
# Protocol: (§2) Biochemical IC50s of the compounds of the present disclosure against various kinases were measured in a KiNativ assay. Compounds were screened in duplicate at 10 μM in H929 live cell. IC50 was measured via Mass spectroscopy (MS).
# [4] = biological target: NEK9 (Homo sapiens (Human), UniProt Q8TD19); assay: KiNativ assay; assay type: binding; details: H929 live cell
# Protocol: as §2
# [5] = biological target: MSK2 domain1 (Homo sapiens (Human), UniProt O75676); assay: KiNativ assay; assay type: binding; details: H929 live cell
# Protocol: as §2
# [6] = biological target: RSK1 domain2 (Homo sapiens (Human), UniProt Q15418); assay: KiNativ assay; assay type: binding; details: H929 live cell
# Protocol: as §2
# [7] = biological target: p70S6K (Homo sapiens (Human), UniProt P23443); assay: KiNativ assay; assay type: binding; details: H929 live cell
# Protocol: as §2
# [8] = biological target: CLK2 (Homo sapiens (Human), UniProt P49760); assay: KiNativ assay; assay type: binding; details: H929 live cell
# Protocol: as §2
# [9] = biological target: MSK1 domain1 (Homo sapiens (Human), UniProt O75582); assay: KiNativ assay; assay type: binding; details: H929 live cell
# Protocol: as §2
# [10] = biological target: p70S6Kb (Homo sapiens (Human), UniProt Q9UBS0); assay: KiNativ assay; assay type: binding; details: H929 live cell
# Protocol: as §2
# [11] = biological target: STLK6 (Homo sapiens (Human), UniProt Q9C0K7); assay: KiNativ assay; assay type: binding; details: H929 live cell
# Protocol: as §2
# [12] = biological target: MAP3K4 (Homo sapiens (Human), UniProt Q9Y6R4); assay: KiNativ assay; assay type: binding; details: H929 live cell
# Protocol: as §2
# [13] = tested on: Wnk1, Wnk2, Wnk3; assay: KiNativ assay; assay type: binding; details: H929 live cell
# Protocol: as §2
# [14] = biological target: MAP3K5 (Homo sapiens (Human), UniProt Q99683); assay: KiNativ assay; assay type: binding; details: H929 live cell
# Protocol: as §2
# [15] = biological target: MST2 (Homo sapiens (Human), UniProt Q13188); assay: KiNativ assay; assay type: binding; details: H929 live cell
# Protocol: as §2
# [16] = biological target: MST3 (Homo sapiens (Human), UniProt Q9Y6E0); assay: KiNativ assay; assay type: binding; details: H929 live cell
# Protocol: as §2
# [17] = biological target: RSK2 domain1 (Homo sapiens (Human), UniProt P51812); assay: KiNativ assay; assay type: binding; details: H929 live cell
# Protocol: as §2
# [18] = tested on: TAO1, TAO3; assay: KiNativ assay; assay type: binding; details: H929 live cell
# Protocol: as §2
# [19] = biological target: Erk1 (Homo sapiens (Human), UniProt P27361); assay: KiNativ assay; assay type: binding; details: H929 live cell
# Protocol: as §2
# [20] = biological target: SNRK (Homo sapiens (Human), UniProt Q9NRH2); assay: KiNativ assay; assay type: binding; details: H929 live cell
# Protocol: as §2
# [21] = biological target: MARK2 (Homo sapiens (Human), UniProt Q7KZI7); assay: KiNativ assay; assay type: binding; details: H929 live cell
# Protocol: as §2
# [22] = biological target: SLK (Homo sapiens (Human), UniProt Q9H2G2); assay: KiNativ assay; assay type: binding; details: H929 live cell
# Protocol: as §2
# [23] = biological target: BARK1 (Homo sapiens (Human), UniProt P25098); assay: KiNativ assay; assay type: binding; details: H929 live cell
# Protocol: as §2
# [24] = biological target: LATS1 (Homo sapiens (Human), UniProt O95835); assay: KiNativ assay; assay type: binding; details: H929 live cell
# Protocol: as §2
# [25] = tested on: MST4, YSK1; assay: KiNativ assay; assay type: binding; details: H929 live cell
# Protocol: as §2
# [26] = biological target: DGKH (Homo sapiens (Human), UniProt Q86XP1); assay: KiNativ assay; assay type: binding; details: H929 live cell, read-out: inhibition (10 μM)
# Protocol: as §2
# [27] = biological target: CK1g3 (Homo sapiens (Human), UniProt Q9Y6M4); assay: KiNativ assay; assay type: binding; details: H929 live cell
# Protocol: as §2
# [28] = tested on: CaMK2a, CaMK2b, CaMK2d, CaMK2g; assay: KiNativ assay; assay type: binding; details: H929 live cell
# Protocol: as §2
# [29] = biological target: FER (Homo sapiens (Human), UniProt P16591); assay: KiNativ assay; assay type: binding; details: H929 live cell
# Protocol: as §2
# Chain of NEK9 (Q8TD19 whole entry): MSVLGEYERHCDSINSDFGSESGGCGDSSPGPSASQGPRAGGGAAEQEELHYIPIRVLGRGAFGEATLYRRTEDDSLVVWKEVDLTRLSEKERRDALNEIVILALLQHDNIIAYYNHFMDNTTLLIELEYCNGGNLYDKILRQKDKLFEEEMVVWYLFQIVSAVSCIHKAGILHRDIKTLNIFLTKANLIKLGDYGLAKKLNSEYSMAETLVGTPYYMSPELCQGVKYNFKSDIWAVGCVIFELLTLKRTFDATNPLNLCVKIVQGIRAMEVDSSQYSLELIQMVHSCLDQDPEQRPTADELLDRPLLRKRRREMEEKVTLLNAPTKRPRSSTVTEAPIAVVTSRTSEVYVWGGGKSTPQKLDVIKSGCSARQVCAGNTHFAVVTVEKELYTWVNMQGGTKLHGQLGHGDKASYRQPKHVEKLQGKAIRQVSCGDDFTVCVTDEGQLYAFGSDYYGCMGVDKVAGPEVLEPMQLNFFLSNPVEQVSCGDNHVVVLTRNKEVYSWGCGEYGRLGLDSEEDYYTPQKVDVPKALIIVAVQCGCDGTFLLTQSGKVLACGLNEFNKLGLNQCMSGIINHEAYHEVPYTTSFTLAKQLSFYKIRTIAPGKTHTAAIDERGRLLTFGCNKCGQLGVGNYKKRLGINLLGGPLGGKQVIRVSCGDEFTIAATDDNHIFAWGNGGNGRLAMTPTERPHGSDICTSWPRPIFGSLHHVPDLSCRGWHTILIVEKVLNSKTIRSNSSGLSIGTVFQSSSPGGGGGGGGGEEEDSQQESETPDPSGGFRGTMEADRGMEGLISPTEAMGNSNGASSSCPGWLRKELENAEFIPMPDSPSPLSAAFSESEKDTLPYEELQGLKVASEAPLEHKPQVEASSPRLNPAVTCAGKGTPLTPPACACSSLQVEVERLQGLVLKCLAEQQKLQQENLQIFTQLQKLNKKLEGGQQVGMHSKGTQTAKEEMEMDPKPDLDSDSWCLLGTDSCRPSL
# Chain of FER (P16591 whole entry): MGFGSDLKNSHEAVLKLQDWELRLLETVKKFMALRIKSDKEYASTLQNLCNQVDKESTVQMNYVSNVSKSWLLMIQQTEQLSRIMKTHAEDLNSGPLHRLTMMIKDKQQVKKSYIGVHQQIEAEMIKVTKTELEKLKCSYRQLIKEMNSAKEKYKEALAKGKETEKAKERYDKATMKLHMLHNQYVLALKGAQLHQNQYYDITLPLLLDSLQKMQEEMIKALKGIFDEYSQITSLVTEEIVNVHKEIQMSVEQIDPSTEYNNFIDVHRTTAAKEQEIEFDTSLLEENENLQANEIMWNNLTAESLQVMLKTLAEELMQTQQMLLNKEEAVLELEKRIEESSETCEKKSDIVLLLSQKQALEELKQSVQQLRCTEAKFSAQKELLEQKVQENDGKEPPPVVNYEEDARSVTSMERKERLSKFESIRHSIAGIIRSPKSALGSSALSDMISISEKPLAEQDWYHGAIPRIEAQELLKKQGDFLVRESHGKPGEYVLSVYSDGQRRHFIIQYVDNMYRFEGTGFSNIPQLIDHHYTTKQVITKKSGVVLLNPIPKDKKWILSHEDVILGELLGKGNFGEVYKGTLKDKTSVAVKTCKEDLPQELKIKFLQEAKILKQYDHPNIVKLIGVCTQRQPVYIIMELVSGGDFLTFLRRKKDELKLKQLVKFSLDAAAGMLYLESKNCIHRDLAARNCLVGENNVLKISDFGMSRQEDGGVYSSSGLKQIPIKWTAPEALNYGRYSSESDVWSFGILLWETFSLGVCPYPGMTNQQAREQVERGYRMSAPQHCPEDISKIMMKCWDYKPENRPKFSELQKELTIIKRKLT
# Chain of SLK (Q9H2G2 whole entry): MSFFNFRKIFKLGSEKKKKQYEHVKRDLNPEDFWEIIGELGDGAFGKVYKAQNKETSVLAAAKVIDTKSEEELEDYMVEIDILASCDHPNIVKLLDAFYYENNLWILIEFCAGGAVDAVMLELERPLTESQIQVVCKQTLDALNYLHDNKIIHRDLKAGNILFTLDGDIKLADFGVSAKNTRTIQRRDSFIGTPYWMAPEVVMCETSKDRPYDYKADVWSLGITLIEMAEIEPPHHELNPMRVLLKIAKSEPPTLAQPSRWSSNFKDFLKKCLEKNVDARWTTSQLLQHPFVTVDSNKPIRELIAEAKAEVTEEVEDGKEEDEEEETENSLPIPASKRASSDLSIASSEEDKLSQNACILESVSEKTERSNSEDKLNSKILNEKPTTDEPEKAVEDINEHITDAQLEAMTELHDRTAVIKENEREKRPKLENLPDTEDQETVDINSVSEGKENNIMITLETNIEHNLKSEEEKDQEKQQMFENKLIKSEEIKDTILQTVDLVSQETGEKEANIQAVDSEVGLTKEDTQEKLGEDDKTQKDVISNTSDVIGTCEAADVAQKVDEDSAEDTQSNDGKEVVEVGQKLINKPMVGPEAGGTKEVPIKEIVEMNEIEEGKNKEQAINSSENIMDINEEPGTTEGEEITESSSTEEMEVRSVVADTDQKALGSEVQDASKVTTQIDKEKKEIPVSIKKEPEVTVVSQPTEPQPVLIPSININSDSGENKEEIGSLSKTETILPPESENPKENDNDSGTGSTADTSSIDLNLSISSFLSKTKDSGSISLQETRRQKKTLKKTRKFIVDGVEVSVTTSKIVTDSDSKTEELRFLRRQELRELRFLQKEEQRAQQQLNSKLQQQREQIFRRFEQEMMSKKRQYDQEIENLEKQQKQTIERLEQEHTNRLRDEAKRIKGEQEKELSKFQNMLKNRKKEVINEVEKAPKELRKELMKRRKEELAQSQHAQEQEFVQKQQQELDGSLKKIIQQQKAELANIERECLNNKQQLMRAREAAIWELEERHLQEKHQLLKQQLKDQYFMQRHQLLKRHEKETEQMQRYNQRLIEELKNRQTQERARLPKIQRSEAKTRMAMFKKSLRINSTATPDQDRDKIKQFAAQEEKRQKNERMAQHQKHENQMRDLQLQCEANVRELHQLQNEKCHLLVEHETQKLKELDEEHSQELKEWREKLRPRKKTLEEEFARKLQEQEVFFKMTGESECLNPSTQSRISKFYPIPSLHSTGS
# Chain of LATS1 (O95835 whole entry): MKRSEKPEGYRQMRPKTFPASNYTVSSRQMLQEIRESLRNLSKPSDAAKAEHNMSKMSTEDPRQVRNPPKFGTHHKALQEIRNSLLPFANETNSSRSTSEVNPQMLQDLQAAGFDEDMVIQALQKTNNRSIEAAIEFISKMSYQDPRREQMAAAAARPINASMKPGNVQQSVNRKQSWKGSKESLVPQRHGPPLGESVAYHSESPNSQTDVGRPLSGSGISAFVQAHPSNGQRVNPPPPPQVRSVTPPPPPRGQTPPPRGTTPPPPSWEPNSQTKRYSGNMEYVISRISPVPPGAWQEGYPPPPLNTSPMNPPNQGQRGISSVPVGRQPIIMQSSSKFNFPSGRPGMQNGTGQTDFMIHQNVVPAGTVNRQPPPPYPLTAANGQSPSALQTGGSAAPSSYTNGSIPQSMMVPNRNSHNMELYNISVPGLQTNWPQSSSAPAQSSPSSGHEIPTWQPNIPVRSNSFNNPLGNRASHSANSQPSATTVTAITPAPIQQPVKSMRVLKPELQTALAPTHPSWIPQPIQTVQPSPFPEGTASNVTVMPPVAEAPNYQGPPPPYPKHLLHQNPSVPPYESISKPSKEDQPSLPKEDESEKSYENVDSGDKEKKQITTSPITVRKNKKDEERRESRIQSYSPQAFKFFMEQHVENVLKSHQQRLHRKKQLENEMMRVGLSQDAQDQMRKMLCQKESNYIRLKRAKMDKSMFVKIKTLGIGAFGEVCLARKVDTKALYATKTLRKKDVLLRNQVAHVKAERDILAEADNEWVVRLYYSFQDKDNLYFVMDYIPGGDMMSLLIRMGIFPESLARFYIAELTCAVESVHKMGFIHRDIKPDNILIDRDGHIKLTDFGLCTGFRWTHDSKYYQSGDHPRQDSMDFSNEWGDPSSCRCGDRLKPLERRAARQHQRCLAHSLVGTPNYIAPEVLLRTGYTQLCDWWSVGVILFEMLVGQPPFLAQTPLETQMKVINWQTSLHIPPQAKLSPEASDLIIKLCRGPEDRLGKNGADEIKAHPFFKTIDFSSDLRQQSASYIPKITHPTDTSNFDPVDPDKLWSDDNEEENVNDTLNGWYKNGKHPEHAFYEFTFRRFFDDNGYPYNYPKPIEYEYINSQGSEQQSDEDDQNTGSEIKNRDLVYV
# Chain of p70S6Kb (Q9UBS0 whole entry): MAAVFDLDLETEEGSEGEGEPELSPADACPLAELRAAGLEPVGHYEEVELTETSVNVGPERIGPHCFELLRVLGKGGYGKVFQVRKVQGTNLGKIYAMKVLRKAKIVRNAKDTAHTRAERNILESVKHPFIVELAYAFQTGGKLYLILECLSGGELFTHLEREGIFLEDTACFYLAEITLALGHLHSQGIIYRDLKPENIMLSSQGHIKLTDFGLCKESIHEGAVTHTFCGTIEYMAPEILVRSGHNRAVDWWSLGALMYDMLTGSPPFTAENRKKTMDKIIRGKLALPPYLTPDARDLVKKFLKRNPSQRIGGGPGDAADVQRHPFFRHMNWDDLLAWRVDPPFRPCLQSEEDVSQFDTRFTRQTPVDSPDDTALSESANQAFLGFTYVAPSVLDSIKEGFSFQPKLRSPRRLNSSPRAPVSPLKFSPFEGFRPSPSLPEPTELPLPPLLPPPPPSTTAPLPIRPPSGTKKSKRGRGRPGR
# Chain of CK1g3 (Q9Y6M4 whole entry): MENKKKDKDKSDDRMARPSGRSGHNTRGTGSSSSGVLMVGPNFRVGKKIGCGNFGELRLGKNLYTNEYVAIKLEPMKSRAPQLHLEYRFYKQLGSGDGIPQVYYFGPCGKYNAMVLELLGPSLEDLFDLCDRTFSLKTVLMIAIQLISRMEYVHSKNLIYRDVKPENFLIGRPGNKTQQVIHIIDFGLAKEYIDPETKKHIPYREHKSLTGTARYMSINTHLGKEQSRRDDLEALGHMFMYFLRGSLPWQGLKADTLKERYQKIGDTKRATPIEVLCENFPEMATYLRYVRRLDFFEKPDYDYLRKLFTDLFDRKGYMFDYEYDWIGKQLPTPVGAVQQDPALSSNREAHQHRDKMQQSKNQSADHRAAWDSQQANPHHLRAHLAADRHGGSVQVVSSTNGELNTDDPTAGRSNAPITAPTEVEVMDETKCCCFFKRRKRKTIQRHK
smiles,measurement,setting,value
"Nc1ncc(-c2cc([N+](=O)[O-])ccc2F)cc1-c1ccc2c(c1)CCNC2=O [Compound I-1, 6-(2-amino-5-(2-fluoro-5-nitrophenyl)pyridin-3-yl)-3,4-dihydroisoquinolin-1(2H)-one]",IC50,[1],> 900 nM
same,IC50,[2],< 40 nM
"Nc1ncc(-c2cccc([N+](=O)[O-])c2F)cc1-c1ccc2c(c1)CCNC2=O [Compound I-9, 6-(2-amino-5-(2-fluoro-3-nitrophenyl)pyridin-3-yl)-3,4-dihydroisoquinolin-1(2H)-one]",% inhibition (range),[3]; 10 μM,0.0%
same,inhibition (10 μM),[3],−11.0%
same,inhibition at 10 µM,[4]; read-out: % inhibition (range),0%
same,inhibition at 10 µM,[4]; read-out: inhibition (10 μM),-38.3%
same,inhibition at 10 µM,[5]; read-out: % inhibition (range),0%
same,inhibition at 10 µM,[5]; read-out: inhibition (10 μM),-36.5%
same,inhibition at 10 µM,[6]; read-out: % inhibition (range),0%
same,inhibition at 10 µM,[6]; read-out: inhibition (10 μM),1%
same,inhibition at 10 µM,[7]; read-out: % inhibition (range),0%
same,inhibition at 10 µM,[7]; read-out: inhibition (10 μM),-71.5%
same,inhibition at 10 µM,[8]; read-out: % inhibition (range),> 90%
same,inhibition at 10 µM,[8]; read-out:,> 95%
same,inhibition at 10 µM,[9]; read-out: % inhibition (range),0%
same,inhibition at 10 µM,[9]; read-out: inhibition (10 μM),2%
same,inhibition at 10 µM,[10]; read-out: % inhibition (range),0%
same,inhibition at 10 µM,[10]; read-out: inhibition (10 μM),-84.5%
same,inhibition at 10 µM,[11]; read-out: % inhibition (range),0%
same,inhibition at 10 µM,[11]; read-out: inhibition (10 μM),-47.7%
same,inhibition at 10 µM,[12]; read-out: % inhibition (range),0%
same,inhibition at 10 µM,[12]; read-out: inhibition (10 μM),-9.6%
same,% inhibition (range),[13]; 10 μM,>100%
same,inhibition (10 μM),[13],−105.5%
same,inhibition at 10 µM,[14]; read-out: % inhibition (range),0%
same,inhibition at 10 µM,[14]; read-out: inhibition (10 μM),30.6%
same,inhibition at 10 µM,[15]; read-out: % inhibition (range),75 to 90%
same,inhibition at 10 µM,[15]; read-out: inhibition (10 μM),88.9%
same,inhibition at 10 µM,[16]; read-out: % inhibition (range),35 to 50%
same,inhibition at 10 µM,[16]; read-out: inhibition (10 μM),40.4%
same,inhibition at 10 µM,[17]; read-out: % inhibition (range),50 to 75%
same,inhibition at 10 µM,[17]; read-out: inhibition (10 μM),69.9%
same,% inhibition (range),[18]; 10 μM,50-75%
same,inhibition (10 μM),[18],67.5%
same,inhibition at 10 µM,[19]; read-out: % inhibition (range),50 to 75%
same,inhibition at 10 µM,[19]; read-out: inhibition (10 μM),50.5%
same,inhibition at 10 µM,[20]; read-out: % inhibition (range),35 to 50%
same,inhibition at 10 µM,[20]; read-out: inhibition (10 μM),43.7%
same,inhibition at 10 µM,[21]; read-out: % inhibition (range),50 to 75%
same,inhibition at 10 µM,[21]; read-out: inhibition (10 μM),63.5%
same,inhibition at 10 µM,[22]; read-out: % inhibition (range),> 90%
same,inhibition at 10 µM,[22]; read-out: inhibition (10 μM),95.3%
same,inhibition at 10 µM,[23]; read-out: % inhibition (range),0%
same,inhibition at 10 µM,[23]; read-out: inhibition (10 μM),2.8%
same,inhibition at 10 µM,[24]; read-out: % inhibition (range),0%
same,inhibition at 10 µM,[24]; read-out: inhibition (10 μM),33.1%
same,% inhibition (range),[25]; 10 μM,0.0%
same,inhibition (10 μM),[25],33.0%
same,inhibition at 10 µM,[26],44.2%
same,inhibition at 10 µM,[27]; read-out: % inhibition (range),> 90%
same,inhibition at 10 µM,[27]; read-out: inhibition (10 μM),93%
same,% inhibition (range),[28]; 10 μM,0.0%
same,inhibition (10 μM),[28],3.3%
same,inhibition at 10 µM,[29]; read-out: % inhibition (range),0%
same,inhibition at 10 µM,[29]; read-out: inhibition (10 μM),27.4%
same,IC50,[1],> 900 nM
same,IC50,[2],< 40 nM
